Data reported in patent US12486274B2, “Substituted pyrazolo-pyrimidines and uses thereof” (Verge Analytics, Inc., priority 2020, dated 2025).

Tests used:
[1] = target: Full length human recombinant PIKFYVE (Homo sapiens (Human), UniProt Q9Y2I7); assay: Inhibition of PIKfyve (microfluidic electrophoresis kinase assay); assay type: biochemical; settings: 2 nM enzyme, PI3P/PS substrate, 3 h at room temperature, 12 concentrations
Outline: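 GST-tagged full-length PIKfyve (baculovirus-expressed, 2 nM final) with fluorescent PI3P/PS substrate (1 μM PI3P) and […] in HEPES pH 7.5 with Mg2+/Mn2+, 1% DMSO, 3 h at room temperature; 12 concentrations. PI(3,5)P product and substrate separated by microfluidic electrophoresis; % inhibition from product/sum ratio.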

[2] = test system: HEK 293T transfected with plasmids containing TDP-43 Q331K mutation; assay: HEK/TDP Survival assay (Cell-Titer-Glo); assay type: cell-based; settings: Homo sapiens; HEK 293T TDP-43 Q331K, 48 hrs, CTG readout
Experimental: HEK/TDP Survival assay: Immortalized human embryonic kidney 293T (HEK 293T) were transfected with plasmids containing TDP-43 Q331K mutation, resulting in an increase in cell death that is biologically relevant to ALS patients. Cell death is measured as reductions in the amount of ATP, an indicator of metabolically active cells, that is quantified by a luminescence Cell-Titer-Glo® (CTG) reagent. Compounds are evaluated in this model for changes in CTG compared to no treatment group. Increased signal indicates improved survival (rescue) and decreased signal indicates decreased survival.
Cell rescue was measured in a 96-well format with eight different concentrations of the test compound over 48 hrs with 6 replicates. The Promega Cell-Titer-Glo® Luminescent Cell Viability Assay was used to quantify ATP, an indicator of metabolically active cells (see protocol: https://www.promega.com/-/media/files/resources/protocols/technical-manuals/101/celltiterglo-2-O-assay-protocol.pdf?la=en). The luminescence signal was detected using the PerkinElmer En Vision or Molecular Devices SpectraMax.
The effect of a compound at a given dose on cell viability was determined using a three step procedure. First, Hedge's g for the Cell Titer-Glo luminescence values using six untreated wells on every plate as a control was calculated. […] Finally, values from all compound-dose pairs were corrected for multiple hypothesis testing using the Empirical Bayes framework of Stephens, M. (False discovery rates: a new deal, Biostatistics, 18 [2], 2017, 275-294) yielding credible intervals for the measured effect and associated s values.
Briefly, this method computes a local false sign rate for each experiment. Analogous to the local false discovery rate of Efron, B. (Size, power and false discovery rates, Ann. Statist. 35 [4], 2007, 1351-1377) this value measures the confidence in the sign of each effect (rather than confidence in each effect being non-zero). The s values reported in the previous figures are the expected fraction of errors if estimating the sign of all effects with greater absolute local false sign rate, defined in analogy to the q value of Storey, JD (The positive false discovery rate: a Bayesian interpretation and the q-value, Ann. Statist. 31 [6] 2003, 2013-2035).
Drugs that yielded signed log s values greater than 3 were considered hits. This threshold was determined by a separate calibration experiment in which Cell Titer-Glo® was measured in blank plates consisting of untreated cells to assess the noise inherent in the assay. Data are presented as the maximal effect of rescue obtained from the dose-response curve.

[3] = test system: C9 iPSC MN (ALS patient derived motor neurons); assay: iPSC MN Survival assay; assay type: cell-based, human; settings: for EC50: Homo sapiens, iPSC, 144 h, motor neurons in nutrient deprived media (HBSS), six days, GFP imaging, read-out: C9 iPSC MN Significant survival rescue EC50; for C9 iPSC MN Survival hazard ratio: maximal reduction in hazard ratio vs control (Cox regression), <1.0 indicates increased survival
Experimental: [The source words this procedure for another variant and reports this variant under the same test.] iPSC MN Survival assay: Fibroblasts from ALS patients with known SOD1 A4V mutation were reprogrammed into inducible pluripotent stem cells (iPSC) and then differentiated to motor neurons. In culture, ALS patient derived motor neurons show increased death rate compared to motor neurons derived from healthy individuals in a stressed condition (nutrient deprived media, Hank's buffered salt solution-HBSS).
Cell rescue was measured following more than two different concentrations of each compound for six days with greater than four replicates in a 96-well format to ensure studies with power >0.8. Cells are transduced with a GFP reporter and imaged once a day to track survival. A broad-spectrum caspase inhibitor served as the positive control.
Microscopy image-based readout: Cells are transduced with a GFP reporter and imaged once a day with a blue laser to track survival. Imagers used include the Biotek Cytation 5 and Thermo Fisher EVOS Auto FL 2. All Images undergo uniform processing consisting of rolling hat background subtraction and contrast adjustment.
Cells are identified by their shape and each cell is tracked across images and time points for each well. Survival is visually assessed from the Kaplan-Meier curves. Survival of the cells is modeled and tested using a mixed effects Cox regression where each well is modeled as the random effect, and the group (control/treatment) as the fixed effect. Hazard ratios between treatment and control are estimated within the Cox regression where a value of 1.0 denotes no change, values >1.0 indicate decreased survival in response to treatment, and values <1.0 indicate increased survival in response to treatment. Data are presented as the maximal reduction in hazard ratio scores measured at various concentrations.

Full length human recombinant PIKFYVE, sequence (Q9Y2I7 whole entry): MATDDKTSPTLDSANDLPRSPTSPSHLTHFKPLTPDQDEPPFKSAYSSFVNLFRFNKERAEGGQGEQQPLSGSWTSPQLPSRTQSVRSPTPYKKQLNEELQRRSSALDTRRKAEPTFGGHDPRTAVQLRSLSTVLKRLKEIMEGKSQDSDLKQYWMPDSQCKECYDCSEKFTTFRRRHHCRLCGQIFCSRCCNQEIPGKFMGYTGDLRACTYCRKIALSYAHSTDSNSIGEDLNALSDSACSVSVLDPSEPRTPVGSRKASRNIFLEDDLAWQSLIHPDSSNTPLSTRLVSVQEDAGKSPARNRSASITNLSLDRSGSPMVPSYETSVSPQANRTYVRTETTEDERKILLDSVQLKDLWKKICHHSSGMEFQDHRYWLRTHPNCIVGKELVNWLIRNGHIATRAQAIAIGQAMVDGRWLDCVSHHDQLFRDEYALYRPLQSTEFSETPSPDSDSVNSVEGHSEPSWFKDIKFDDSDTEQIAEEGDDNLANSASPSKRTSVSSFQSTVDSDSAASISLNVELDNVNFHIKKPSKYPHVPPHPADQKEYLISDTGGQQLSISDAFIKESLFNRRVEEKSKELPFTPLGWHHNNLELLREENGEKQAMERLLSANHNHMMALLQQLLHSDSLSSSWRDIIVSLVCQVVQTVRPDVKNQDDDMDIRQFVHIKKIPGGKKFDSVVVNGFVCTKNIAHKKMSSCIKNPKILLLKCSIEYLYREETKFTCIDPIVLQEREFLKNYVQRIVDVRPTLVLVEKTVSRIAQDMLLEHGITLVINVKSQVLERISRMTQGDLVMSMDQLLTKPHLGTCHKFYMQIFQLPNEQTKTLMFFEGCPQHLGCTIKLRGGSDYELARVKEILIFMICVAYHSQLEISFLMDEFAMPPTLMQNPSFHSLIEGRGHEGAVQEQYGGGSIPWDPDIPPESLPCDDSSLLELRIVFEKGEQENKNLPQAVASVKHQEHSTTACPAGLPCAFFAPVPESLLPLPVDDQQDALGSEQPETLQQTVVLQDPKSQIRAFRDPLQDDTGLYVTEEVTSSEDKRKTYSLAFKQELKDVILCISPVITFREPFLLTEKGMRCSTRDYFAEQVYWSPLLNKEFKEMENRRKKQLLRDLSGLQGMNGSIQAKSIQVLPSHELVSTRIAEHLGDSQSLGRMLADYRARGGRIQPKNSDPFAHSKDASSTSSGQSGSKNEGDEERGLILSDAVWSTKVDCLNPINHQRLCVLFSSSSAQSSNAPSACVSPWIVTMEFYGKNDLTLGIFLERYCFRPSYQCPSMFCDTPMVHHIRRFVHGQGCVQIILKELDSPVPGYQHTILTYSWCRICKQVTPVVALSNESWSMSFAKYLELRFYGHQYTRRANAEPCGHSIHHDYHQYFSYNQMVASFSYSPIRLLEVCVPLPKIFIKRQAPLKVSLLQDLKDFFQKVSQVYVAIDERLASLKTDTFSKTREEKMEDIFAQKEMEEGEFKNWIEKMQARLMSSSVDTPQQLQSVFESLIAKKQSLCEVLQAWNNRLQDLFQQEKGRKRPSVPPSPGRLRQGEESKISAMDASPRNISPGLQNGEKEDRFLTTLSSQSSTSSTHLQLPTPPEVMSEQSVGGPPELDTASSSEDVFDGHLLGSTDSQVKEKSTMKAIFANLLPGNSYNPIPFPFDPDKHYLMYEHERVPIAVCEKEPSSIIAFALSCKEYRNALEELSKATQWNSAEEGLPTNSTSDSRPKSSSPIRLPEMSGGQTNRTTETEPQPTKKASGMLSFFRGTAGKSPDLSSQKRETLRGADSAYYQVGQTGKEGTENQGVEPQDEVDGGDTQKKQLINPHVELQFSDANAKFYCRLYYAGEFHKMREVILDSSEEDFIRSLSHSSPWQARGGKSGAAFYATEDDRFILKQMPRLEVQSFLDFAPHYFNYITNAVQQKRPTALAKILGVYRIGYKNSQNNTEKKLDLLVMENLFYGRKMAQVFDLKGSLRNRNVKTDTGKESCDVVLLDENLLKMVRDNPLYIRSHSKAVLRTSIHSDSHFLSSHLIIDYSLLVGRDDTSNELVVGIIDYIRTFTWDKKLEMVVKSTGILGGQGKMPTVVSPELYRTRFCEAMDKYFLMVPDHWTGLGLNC

Row | IC50 [1] | SMILES | EC50 [2] | EC50 [3] | C9 iPSC MN Survival hazard ratio [3]
1 | 4.3 nM | Cc1cccc(-c2ccn(-c3cc(N4CCOCC4)n4nc(-c5ccncc5)cc4n3)n2)c1 [Example 14, 4-[5-[3-(m-tolyl)pyrazol-1-yl]-2-(4-pyridyl)pyrazolo[1,5-a]pyrimidin-7-yl]morpholine] | 144 nM | > 6000 nM | 0.94
2 | 6.8 nM | Cc1cccc(-c2ccn(-c3cc(N4CCOCC4)n4nc(-c5cccnc5)cc4n3)n2)c1 [Example 17, 4-(2-(pyridin-3-yl)-5-(3-(m-tolyl)-1H-pyrazol-1-yl)pyrazolo[1,5-a]pyrimidin-7-yl)morpholine] | 95 nM | 1000 nM | 0.82
3 | 29.6 nM | Cc1cccc(-c2ccn(-c3cc(N4CCOCC4)n4nc(-c5ccccn5)cc4n3)n2)c1 [Example 18, 4-(2-(pyridin-2-yl)-5-(3-(m-tolyl)-1H-pyrazol-1-yl)pyrazolo[1,5-a]pyrimidin-7-yl)morpholine] | 105 nM | 1000 nM | 
4 | 30.2 nM | Cc1cccc(-c2ccn(-c3cc(N4CCOCC4)n4nc(C(=O)NC5CC5)cc4n3)n2)c1 [Example 20, N-cyclopropyl-7-morpholino-5-(3-(m-tolyl)-1H-pyrazol-1-yl)pyrazolo[1,5-a]pyrimidine-2-carboxamide] | 103 nM |  | 0.85
5 | 21.6 nM | Cc1cccc(-c2ccn(-c3cc(N4CCOCC4)n4nc(C(=O)N[C@H](C)C5CC5)cc4n3)n2)c1 [Example 21, (R)—N-(1-cyclopropylethyl)-7-morpholino-5-(3-(m-tolyl)-1H-pyrazol-1-yl)pyrazolo[1,5-a]pyrimidine-2-carboxamide] | 110 nM |  | 
6 | 12.6 nM | Cc1cccc(-c2ccn(-c3cc(N4CCOCC4)n4nc(C(=O)N[C@@H](C)C5CC5)cc4n3)n2)c1 [Example 22, (S)—N-(1-cyclopropylethyl)-7-morpholino-5-(3-(m-tolyl)-1H-pyrazol-1-yl)pyrazolo[1,5-a]pyrimidine-2-carboxamide] | 112 nM |  | 
7 | 65.6 nM | CONC(=O)c1cc2nc(-n3ccc(-c4cccc(C)c4)n3)cc(N3CCOCC3)n2n1 [Example 34, N-methoxy-7-morpholino-5-(3-(m-tolyl)-1H-pyrazol-1-yl)pyrazolo[1,5-a]pyrimidine-2-carboxamide] |  |  | 0.82
8 | 21.6 nM | Cc1cccc(-c2ccn(-c3cc(N4CCOCC4)n4nc(C(=O)NC5CCCC5)cc4n3)n2)c1 [Example 36, N-cyclopentyl-7-morpholino-5-(3-(m-tolyl)-1H-pyrazol-1-yl)pyrazolo[1,5-a]pyrimidine-2-carboxamide] | 67 nM |  | 
9 | 213 nM | Cc1cccc(-c2ccn(-c3cc(N4CCOCC4)n4nc(C(=O)N(C)C5CCCC5)cc4n3)n2)c1 [Example 37, N-cyclopentyl-N-methyl-7-morpholino-5-(3-(m-tolyl)-1H-pyrazol-1-yl)pyrazolo[1,5-a]pyrimidine-2-carboxamide] |  |  | 
10 | 25.7 nM | Cc1cccc(-c2ccn(-c3cc(N4CCOCC4)n4nc(C(=O)NC(C)C)cc4n3)n2)c1 [Example 38, N-isopropyl-7-morpholino-5-(3-(m-tolyl)-1H-pyrazol-1-yl)pyrazolo[1,5-a]pyrimidine-2-carboxamide] |  |  | 
11 | 99.6 nM | COCC(COC)NC(=O)c1cc2nc(-n3ccc(-c4cccc(C)c4)n3)cc(N3CCOCC3)n2n1 [Example 39, N-(1,3-dimethoxypropan-2-yl)-7-morpholino-5-(3-(m-tolyl)-1H-pyrazol-1-yl)pyrazolo[1,5-a]pyrimidine-2-carboxamide] |  |  | 
12 | 258 nM | Cc1cccc(-c2ccn(-c3cc(N4CCOCC4)n4nc(C(=O)NCCN(C)C)cc4n3)n2)c1 [Example 40, N-(2-(dimethylamino)ethyl)-7-morpholino-5-(3-(m-tolyl)-1H-pyrazol-1-yl)pyrazolo[1,5-a]pyrimidine-2-carboxamide] |  |  | 
13 | 32.4 nM | Cc1cccc(-c2ccn(-c3cc(N4CCOCC4)n4nc(C(=O)NCCCCN(C)C)cc4n3)n2)c1 [Example 41, N-(4-(dimethylamino)butyl)-7-morpholino-5-(3-(m-tolyl)-1H-pyrazol-1-yl)pyrazolo[1,5-a]pyrimidine-2-carboxamide] | 67 nM |  | 
14 | 63.3 nM | Cc1cccc(-c2ccn(-c3cc(N4CCOCC4)n4nc(C(=O)NC5COC5)cc4n3)n2)c1 [Example 42, 7-morpholino-N-(oxetan-3-yl)-5-(3-(m-tolyl)-1H-pyrazol-1-yl)pyrazolo[1,5-a]pyrimidine-2-carboxamide] |  |  | 
15 | 46.4 nM | Cc1cccc(-c2ccn(-c3cc(N4CCOCC4)n4nc(C(=O)NCC5COC5)cc4n3)n2)c1 [Example 43, 7-morpholino-N-(oxetan-3-ylmethyl)-5-(3-(m-tolyl)-1H-pyrazol-1-yl)pyrazolo[1,5-a]pyrimidine-2-carboxamide] | 92 nM |  | 
16 | 79 nM | Cc1cccc(-c2ccn(-c3cc(N4CCOCC4)n4nc(C(=O)NCC5(CO)COC5)cc4n3)n2)c1 [Example 44, N-((3-(hydroxymethyl)oxetan-3-yl)methyl)-7-morpholino-5-(3-(m-tolyl)-1H-pyrazol-1-yl)pyrazolo[1,5-a]pyrimidine-2-carboxamide] |  |  | 
17 | 105 nM | Cc1cccc(-c2ccn(-c3cc(N4CCOCC4)n4nc(C(=O)N5CC6(COC6)C5)cc4n3)n2)c1 [Example 45, (7-morpholino-5-(3-(m-tolyl)-1H-pyrazol-1-yl)pyrazolo[1,5-a]pyrimidin-2-yl) (2-oxa-6-azaspiro[3.3]heptan-6-yl)methanone] |  |  | 
18 | 113 nM | Cc1cccc(-c2ccn(-c3cc(N4CCOCC4)n4nc(C(=O)N5CCC56COC6)cc4n3)n2)c1 [Example 46, (7-morpholino-5-(3-(m-tolyl)-1H-pyrazol-1-yl)pyrazolo[1,5-a]pyrimidin-2-yl) (6-oxa-1-azaspiro[3.3]heptan-1-yl)methanone] |  |  | 
19 | 122 nM | Cc1cccc(-c2ccn(-c3cc(N4CCOCC4)n4nc(C(=O)NOC5COC5)cc4n3)n2)c1 [Example 47, 7-morpholino-N-(oxetan-3-yloxy)-5-(3-(m-tolyl)-1H-pyrazol-1-yl)pyrazolo[1,5-a]pyrimidine-2-carboxamide] |  |  | 
